Results reported in US12616667B2, “Compositions and methods for improving neurological diseases and disorders” (CURASEN THERAPEUTICS, INC., priority 2021, dated 2026).
Entries after “also recorded” stand apart in the source; their conditions may differ.

How the values were obtained:
[1] = test system: healthy subjects; assay: Heart rate by triplicate ECG after Compound 03-5 with or without nadolol; assay type: in vivo, human; conditions: 6 mg Compound 03-5 with pre-administration of 1 mg nadolol
Protocol: FIGS. 11A-11B show the effects of Compound 03-5 monotherapy (6 mg) on heart rate (FIG. 11A) and administered 2 hours after nadolol (1-40 mg) (FIG. 11B). Heart rate was measured by triplicate ECG recordings. Data are presented as means changes from time-matched measures recorded on the day before the first dose of study drug (Day −1).
Healthy volunteers were be enrolled into 2 cohorts in a study to undertake within-subject dose titration of Compound 03-5 and/or nadolol in order to explore doses/dose combinations that mitigate peripheral effects of Compound 03-5, e.g. on heart rate, while preserving possible central effects of Compound 03-5 on cerebral perfusion and pupillary light reflex.
Cohort D1 enrolled 8 healthy subjects and undertook an evaluation of the effects of treatment on ECG following repeat dosing of Compound 03-5 in the presence of escalating doses of nadolol according to following schematic.
Eight healthy subjects aged 18-50 years were enrolled into Cohort D1 and received escalating doses of Compound 03-5 (3-12 mg) administered once daily 2 hours follow pre-administration of nadolol (1-40 mg). On all dosing days, study drug(s) were administered orally after an overnight fast of at least 8 hours. […]

[2] = test system: healthy subjects; assay: Peripheral effects of Compound 03-5 (glucose, potassium, tachycardia, tremor, palpitations) with nadolol; assay type: in vivo, human
Protocol: Data are presented as individual observations for all available subjects.
Eight healthy subjects aged 18-50 years were enrolled into Cohort D1 and received escalating doses of Compound 03-5 (3-12 mg) administered once daily 2 hours follow pre-administration of nadolol (1-40 mg). On all dosing days, study drug(s) were administered orally after an overnight fast of at least 8 hours.
Routine measures of ECG, vital signs, safety labs, physical exams and plasma sample collections for analysis of drug pharmacokinetics (PK) were undertaken according to the Schedule of Events (Table 1).
(§1) In Cohort D2, 8 healthy volunteers aged 55-75 years were admitted on Day −1 for a 5-day confinement period at the research facility. During this confinement, subjects received escalating doses of open label Compound 03-5 (1-10 mg) once-daily from Day 1 through Day 3 2 hours after pre-administration of open-label nadolol (3 mg) one each for the 3 dosing days according to the following schematic. Subjects remained in-residency until all study procedures are completed on Day 4.

[3] = test system: healthy volunteers aged 55-75 years; assay: CANTAB cognition battery, Cohort D2; assay type: in vivo, human; conditions: Compound 03-5 1, 3, 10 mg on Days 1-3, 2 hours after nadolol 3 mg
Protocol: CANTAB data from healthy adults 55-75 years of age (N=4) who received once-daily 3 mg nadolol and Compound 03-5 (1, 3, and 10 mg) on Day1, Day 2 and Day 3. […] Data are presented as mean changes from the within-day pre-dose assessment.
as §1
? Compound 03-5 dose administration. Compound 03-5 was administered as escalating doses on Day 1 (1 mg), Day 2 (3 mg) and Day 3 (10 mg). CANTAB was conducted twice in all subjects on the day prior to start of dosing (Day −1) to familiarize subjects with the platform, and prior to dosing and approximately 3 hours after Compound 03-5 administration on Days 1, 2, and 3.

[4] = test system: Ts65Dn mice; conditions: increasing brain NE levels; cited from earlier work
[5] = test system: patients; assay: Cerebral blood flow relative to baseline after a single dose (Example 1); assay type: in vivo, human
[6] = test system: healthy subjects; assay: ASL MRI cerebral perfusion before and after a single dose (Example 3); assay type: in vivo, human
Protocol: In a clinical study, healthy subjects were administered doses of clenbuterol ranging from 20 to 160 μg and ASL MRI was conducted prior to and after dosing with an objective to ascertain whether this neuroimaging method enables the detection of a clinically relevant CNS signal.
In a region of interest (ROI) analysis focusing on the hippocampus, which is well understood to be affected in neurodegenerative disorders, a single dose of 80 μg of clenbuterol causes a robust increase in perfusion (see FIG. 7). […] Taken together with other cohorts in which ASL MRI was conducted, a clear dose response relationship is seen between dose of clenbuterol and cerebral perfusion (FIG. 8). […] Our hypothesis is that by improving cerebral perfusion, particularly in areas of the brain that are relevant for symptoms that are commonly found in neurodegenerative diseases such as PD and AD, the administration of a β-AR agonist (such as a β-agent) will have a positive effect on clinically relevant symptoms such as memory and cognition.

[7] = test system: healthy subjects; assay: Adaptive tracking test (visuomotor coordination and vigilance); assay type: in vivo, human; conditions: single dose 160 μg clenbuterol
From the text: Adaptive tracking measures visuomotor coordination and vigilance. In this test, the subject uses a joystick to move a small dot so that it stays within a continuously moving circle on a computer screen (Boland 1984). During the test, the speed of the circle is adjusted in response to the subject's ability to keep the dot in the circle, ensuring that the test is adapted to the individual subject. […] The improvement shown by subjects is in the same range as that seen with subjects treated with the acetylcholinesterase inhibitor donepezil, which is in clinical use for the treatment of mild to moderate AD (Groeneveld 2016).

[8] = test system: subjects; assay: Visual verbal learning test (VVLT); assay type: in vivo, human; conditions: for effect on VVLT performance: crossover study, 3 agents plus placebo
Protocol: Subjects are presented 30 words on a screen, one at a time, for 1 second with a 1-second interval between words over a total of 1 minute. This is repeated in 3 trials. After each trial, subjects are asked to recall as many words as they can. After the third trial, there is a delay of 2.5 hours and subjects are then tested once for delayed recall. […] Since this was a crossover study, everyone who completed Part A was dosed with the 3 agents plus placebo.

[9] = doses of 80 and 160 μg clenbuterol

CC(C)(C)NC[C@H](O)c1cccc(C#N)n1 [Compound 03-5, (S)-6-(2-(tert-butylamino)-1-hydroxyethyl)picolinonitrile]
mean maximum increase in heart rate [1]: 7 beats per minute
hypokalemia (blood potassium levels) ([2]; Compound 03-5 monotherapy 0.3 mg-6 mg, Cohorts A1-A5): Dose-dependent increases in hypokalemia
performance in the CANTAB cognition battery [3]: improvements in cognition; also recorded: improvements in performance

N[C@H](C(=O)O)[C@H](O)c1ccc(O)c(O)c1 [L-DOPS, L-threo-3,4-dihydroxyphenylserine]
contextual learning [4]: restored contextual learning

CC(C)(C)NCC(O)c1cc(Cl)c(N)c(Cl)c1 (stereo not shown) [clenbuterol]
cerebral blood flow (CBF) relative to baseline ([5]; single dose clenbuterol 160 μg): robust global increase; also recorded: positive increase
cerebral blood flow (CBF) relative to baseline ([5]; single dose clenbuterol 160 μg and nadolol 5 mg): robust global increase
cerebral blood flow (CBF) relative to baseline ([5]; single dose clenbuterol ranging from 30 to 160 μg, tracked over 3 days): robust global increase
cerebral perfusion increase as measured by CBF ([6]; clenbuterol dose of 40 μg): minimal increase
cerebral perfusion increase as measured by CBF ([6]; clenbuterol doses below 30 μg): do not produce significant cerebral perfusion increases
improvements in perfusion in brain areas relevant to neuropathology of neurodegenerative disorders [6, 9]: ~25%
increases in cerebral perfusion in hippocampus and thalamus [6, 9]: 20% to 25
increase in hippocampal perfusion, average ([6]; single dose 80 μg clenbuterol, 6 healthy subjects aged 44-52, hippocampus ROI): 25%
cerebral perfusion, change from baseline ([6]; single dose 160 μg clenbuterol, global, in particular hippocampus, thalamus, cortex): global increase in cerebral perfusion; also recorded: robust global increase
performance in adaptive tracking (percent time dot kept within moving circle) [7]: improved adaptive tracking; also recorded: improves
cognition as measured by adaptive tracking and word recall ([7]; healthy subjects, preliminary data): improves cognition
effect on VVLT performance [8]: positive effects
effect on VVLT performance ([8]; listed as Clenbuterol): improved performance
VVLT improvement in correctly recalled words ([8]; immediate recall (Trial 1) and delayed recall, crossover study vs placebo): 1.5 to 2 correctly recalled words

CC(C)(C)NCC(O)COc1cccc2c1CC(O)C(O)C2 (stereo not shown) [nadolol]
peripheral effects of Compound 03-5 on heart rate, glucose, potassium, tachycardia, tremor and palpitations ([2]; Cohort D1, pre-administered nadolol 1 mg up to 40 mg, Compound 03-5 3-12 mg): blocked the peripheral effects
effects of Compound 03-5 to increase heart rate and other peripheral effects including hyper glycemia and hypokalemia ([2]; Cohort D1, pre-administration of 1 mg nadolol, Compound 03-5 orally up to 6 mg): substantially attenuated
peripheral effects of Compound 03-5 on heart rate, etc. ([2]; Cohort D2, pre-administered nadolol 3 mg, Compound 03-5 1-10 mg): similarly blocked the peripheral effects
effects of Compound 03-5 on blood glucose and potassium, tachycardia, tremor and palpitations ([2]; pre-administration of 1 mg nadolol): Concomitant attenuation
hypokalemia caused by Compound 03-5 (blood potassium levels) ([2]; subjects dosed with nadolol 1-40 mg, Cohorts D1 and D2): attenuation of hypokalemia

CC(C)NCC(O)COc1cccc2[nH]ccc12 (stereo not shown) [pindolol]
effect on VVLT performance [8]: detrimental effect

CC(C)(C)NCC(O)c1ccc(O)c(CO)c1 (stereo not shown) [salbutamol]
effect on VVLT performance [8]: positive effects
